Experimental data taken from publication PMC6736568, “Discovery of Novel Anti-cryptosporidial Activities From Natural Products by in vitro High-Throughput Phenotypic Screening” (Frontiers in Microbiology, 2019).
Counter-ions that a name gives are not always drawn. Like-named read-outs stand apart in the source and are kept apart here.

Assays:
in vitro = settings: for cytotoxicity at 41 h, 10 µM: human
Cryptosporidium parvum = assay: qRT-PCR assay of the growth of C. parvum in vitro in HCT-8 host cells (primary and secondary screening, EC50); type: cell-based; settings: Cryptosporidium parvum, HCT-8; for inhibition at 10 µM: primary screening at 10 uM, read-out: Inhibition (%)
[1] = primary screening at 10 uM, treated vs control

Row | Hs18S ΔCT (HCT-8 host cells (Hs18S); human, 41 h, 10 μM) | SMILES | cytotoxicity at 10 µM (in vitro) [%] | inhibition at 10 µM (Cryptosporidium parvum) [%] | Hs18S ΔCT (HCT-8 host cells (Hs18S); [1]) | cytotoxicity at 41 h, 10 µM (in vitro) [%] | Hs18S ΔCT (HCT-8 host cells (Hs18S)) | inhibition at 3.3 µM (Cryptosporidium parvum; secondary screening at 3.3 uM, read-out: % Inhibition (3.3 uM)) [%]
1 | 0.00 | COc1cc(-c2coc3cc(OCc4ccccc4)c(OC)c(O)c3c2=O)cc(OCc2ccccc2)c1OC [IRIGENIN, DIBENZYL ETHER] |  | -15.7 |  | 0 |  | 
2 | -0.43 | COc1cc(-c2coc3cc(O)c(OC)c(O)c3c2=O)cc(O)c1OC [IRIGENIN] |  | -15 |  | -34.9 |  | 
3 | 0.01 | O=c1c(-c2cc(O)c(O)c(O)c2)coc2cc(O)c(O)c(O)c12 [IRIGENOL] |  | -13.4 |  | 0.7 |  | 
4 | -0.25 | C=C1CCC2C(CC2(C)C)C(=O)CCC1O (stereo not shown) [ISOKOBUSONE] |  | -33.5 |  | -18.7 |  | 
5 | 0.03 | COc1cc(O)ccc1C(C)=O [ISOPEONOL] |  | -12.8 |  | 2.3 |  | 
6 | -0.24 | COc1c2ccoc2c(OC)c2oc(=O)ccc12 [ISOPIMPINELLIN] |  | -23.2 |  | -18.1 |  | 
7 | 0.18 | COc1cc(O)c2c(=O)c(O)c(-c3ccccc3)oc2c1 [IZALPININ] |  | 18.4 |  | 11.5 |  | 
8 | 0.54 | O=c1c(O)c(-c2ccc(O)cc2)oc2cc(O)cc(O)c12 [KAEMPFEROL] |  | 19.8 |  | 31.2 |  | 
9 | -0.31 | NC[C@H]1O[C@H](O[C@H]2[C@H](O)[C@@H](O[C@H]3O[C@H](CO)[C@@H](O)[C@H](N)[C@H]3O)[C@H](N)C[C@@H]2N)[C@H](O)[C@@H](O)[C@@H]1O [KANAMYCIN A SULFATE] |  | 29.3 |  | -23.9 |  | 
10 | 0.22 | COc1c2occc2c(OC)c2c(=O)cc(C)oc12 [KHELLIN] |  | -11.8 |  | 14.1 |  | 
11 | 0.12 | CC(=O)O[C@H]1C[C@@H](OC(C)=O)C(C)(C)[C@@H]2C[C@@H](OC(C)=O)[C@]3(C)[C@H](CC[C@@]4(C)[C@H](c5ccoc5)OC(=O)[C@H]5O[C@@]534)[C@@]12C [KHIVORIN] |  | 52.4 |  | 8 |  | 
12 | 0.01 | CC1(C)C[C@@H]2C(=O)CC[C@H]3O[C@]3(C)CC[C@H]21 [KOBUSONE] |  | -24.4 |  | 0.5 |  | 
13 | -0.02 | COc1ccc(-c2coc3cc(O)ccc3c2=O)c(O)c1O [KOPARIN] |  | 6.05 |  | -1.6 |  | 
14 | -0.16 | O=C1C=C(O)C(=O)c2ccccc21 [LAWSONE] |  | -46.1 |  | -12 |  | 
15 | -0.02 | Cc1cc(OC(=O)c2c(C)cc(O)cc2O)cc(O)c1C(=O)O [LECANORIC ACID] |  | -20 |  | -1.2 |  | 
16 | 0.41 | COC(=O)c1c(C)c2c(c(C)c1O)OC(=O)c1c(C)c(Cl)c(O)c(Cl)c1O2 [LEOIDIN] |  | 16.7 |  | 24.9 |  | 
17 | -0.03 | N[C@@H](Cc1cc(I)c(Oc2cc(I)c(O)c(I)c2)c(I)c1)C(=O)O [LEVOTHYROXINE] |  | -12.4 |  | -2.2 |  | 
18 | -0.12 | CC1(C)O[C@H]2CC(=O)OC[C@]23[C@H]2CC[C@@]4(C)[C@H](c5ccoc5)OC(=O)[C@H]5O[C@]54[C@]2(C)C(=O)C[C@@H]13 [LIMONIN] |  | 26.2 |  | -8.4 |  | 
19 | 0.20 | CCCCCc1c2c(cc(O)c1C(=O)O)OC(=O)c1c(cc(OC)cc1C(=O)CCCC)O2 [LOBARIC ACID] |  | 18.2 |  | 13.1 |  | 
20 | 0.18 | O=c1c2cc(O)c(O)cc2oc2cc(O)c([C@@H]3O[C@H](CO)[C@@H](O)[C@H](O)[C@H]3O)c(O)c12 [MANGIFERIN] |  | -3.49 |  | 11.5 |  | 
21 | -1.56 | COc1ccc2[nH]cc(CCNC(C)=O)c2c1 [MELATONIN] |  | -62.2 |  | -196 |  | 
22 | 0.49 | CC1=CC(=O)c2ccccc2C1=O [MENADIONE] |  | -2.86 |  | 29 |  | 
23 | -0.20 | CC(C)[C@@H]1CC[C@@H](C)CC1=O [MENTHONE] |  | 28.9 |  | -14.5 |  | 
24 | 0.24 | CC(C)[C@@H]1CC[C@@H](C)C[C@H]1OC(=O)c1ccccc1 [MENTHYL BENZOATE] |  | 1.74 |  | 15.1 |  | 
25 | -0.50 | CC1=C2C(O)C(=O)OC3CC4C(C)(C)C(=O)C=C[C@]4(C)C(CC1)[C@]23C (stereo partly shown) [MEROGEDUNIN] |  | -12.3 |  | -41.1 |  | 
26 | 0.33 | COc1cc2c(cc1OC)C(=O)OC2 [METAMECONINE] |  | 24.5 |  | 20.2 |  | 
27 | 0.16 | COC(=O)c1cc(O)c(=O)c2c(O)c(O)ccc2c1 [METHYL 7-DESHYDROXYPYROGALLIN-4-CARBOXYLATE] |  | -4.08 |  | 10.5 |  | 
28 | 0.00 | COC(=O)c1cc(OC)c(=O)c2c(OC)c(OC)ccc2c1 [METHYL 7-DESOXYPURPUROGALLIN-7-CARBOXYLATE TRIMETHYL ETHER] |  | -15.9 |  | 0.1 |  | 

Second part, the molecule before the results:

Row | SMILES | Hs18S ΔCT (HCT-8 host cells (Hs18S); human, 41 h, 10 μM) | cytotoxicity at 10 µM (in vitro) [%] | inhibition at 10 µM (Cryptosporidium parvum) [%] | Hs18S ΔCT (HCT-8 host cells (Hs18S); [1]) | cytotoxicity at 41 h, 10 µM (in vitro) [%] | Hs18S ΔCT (HCT-8 host cells (Hs18S)) | inhibition at 3.3 µM (Cryptosporidium parvum; secondary screening at 3.3 uM, read-out: % Inhibition (3.3 uM)) [%]
29 | COc1cc(-c2coc3cc(OC)c(OC)c(OC)c3c2=O)cc(OC)c1OC [IRIGENIN TRIMETHYL ETHER] |  | -39.9 | 13.7 | -0.48 |  |  | 
30 | COc1cc2occc2c2oc(=O)ccc12 [ISOBERGAPTENE] |  | 11 | 2 | 0.17 |  |  | 
31 | O=C(/C=C/c1ccc(O)cc1)c1ccc(O)cc1O [ISOLIQUIRITIGENIN] | -0.34 |  | 52.9 |  | -26.4 |  | 
32 | COc1cc2c(cc1OC)[C@@H]1C(=O)c3ccc4oc(C(C)C)cc4c3O[C@@H]1CO2 [ISOROTENONE] |  | 38.9 | 2.53 | 0.71 |  |  | 
33 | O=C(O)/C=C/C=C/c1ccccc1 [JUAREZIC ACID] | -0.57 |  | -55.9 |  | -48.4 |  | 
34 | O=C1C=CC(=O)c2c(O)cccc21 [JUGLONE] |  | 11.2 | -17.7 |  |  | 0.17 | 
35 | C=C(C)[C@H]1CN[C@H](C(=O)O)[C@H]1CC(=O)O [KAINIC ACID] |  | -2.6 | -19.9 | -0.04 |  |  | 
36 | COC1=CC(=O)O[C@@H](/C=C/c2ccccc2)C1 [KAWAIN] |  | -10.9 | 16 | -0.15 |  |  | 
37 | c1coc(CNc2ncnc3[nH]cnc23)c1 [KINETIN] | 0.54 |  | -42.7 |  | 31 |  | 
38 | Nc1ccccc1C(=O)CC(N)C(=O)O (stereo not shown) [KYNURENINE] |  | 28.1 | -14.4 | 0.48 |  |  | 
39 | CC(C)=CCC[C@@H](C)[C@H]1CC[C@@]2(C)C3=C(CC[C@]12C)[C@@]1(C)CC[C@H](O)C(C)(C)[C@@H]1CC3 [LANOSTEROL] | -0.24 |  | -22.5 |  | -18.1 |  | 
40 | CC(C)=CCC1=C(O)C(=O)c2ccccc2C1=O [LAPACHOL] | -0.60 |  | 91.3 |  | -52 |  | -98
41 | N[C@@H](Cc1ccc(O)c(O)c1)C(=O)O [LEVODOPA] | -0.21 |  | -9.67 |  | -15.4 |  | 
42 | C=C[C@@](C)(O)CCC=C(C)C [LINALOOL (+)] |  | 6.1 | -23.3 | 0.09 |  |  | 
43 | CC(C)(C#N)O[C@@H]1O[C@H](CO)[C@@H](O)[C@H](O)[C@H]1O [LINAMARIN] |  |  | 6.23 | 0.59 | 33.5 |  | 
44 | C[C@H](CCC(=O)O)[C@H]1CC[C@H]2[C@@H]3CC[C@@H]4C[C@H](O)CC[C@]4(C)[C@H]3CC[C@]12C [LITHOCHOLIC ACID] | 0.65 |  | -55.8 |  | 36.1 |  | 
45 | O=C(O)CCC1NCC2CC1CN1CCCCC21 (stereo not shown) [LUPANYL ACID HYDROCHLORIDE] | 0.09 |  | 5.4 |  | 6 |  | 
46 | C=C(C)[C@@H]1CC[C@]2(C)CC[C@]3(C)[C@H](CC[C@@H]4[C@@]5(C)CC[C@H](O)C(C)(C)[C@@H]5CC[C@]43C)[C@@H]12 [LUPEOL] |  |  | 41.8 | 0.05 | 3.4 |  | 
47 | OC[C@@H]1CCCN2CCCC[C@H]12 [LUPININE] | 0.18 |  | 26.1 |  | 11.8 |  | 
48 | C[C@H]1[C@H](C)CC[C@]2(C(=O)O)CC[C@]3(C)C(=CC[C@@H]4[C@@]5(C)C[C@@H](O)[C@H](O)[C@@](C)(CO)[C@@H]5[C@H](O)C[C@]43C)[C@H]12 [MADECASSIC ACID] |  | -11.7 | -20.3 | -0.16 |  |  | 
49 | COC(=O)C(O)c1ccccc1 (stereo not shown) [MANDELIC ACID, METHYL ESTER] | 0.31 |  | -2.26 |  | 19.1 |  | 
50 | OC[C@H]1O[C@@](CO)(O[C@H]2O[C@H](CO)[C@@H](O)[C@H](O)[C@H]2O)[C@@H](O[C@H]2O[C@H](CO)[C@@H](O)[C@H](O)[C@H]2O)[C@@H]1O [MELEZITOSE] | -0.18 |  | -16.8 |  | -13 |  | 
51 | CC(C)=CCC/C(C)=C/CC/C(C)=C/CC/C(C)=C/CC1=C(C)C(=O)c2ccccc2C1=O [MENAQUINONE-4] | 0.06 |  | -13.8 |  | 4.1 |  | 
